Measurements from US20060094020A1, “Methods and compositions for determining resistance or susceptibility of HIV-1 to stavudine” (priority 2004, published 2006).

Tested on: HIV-1 (patient-derived viruses comprising the K65R mutation in RT)
Test: Resistance test vector (PHENOSENSE) phenotypic drug susceptibility assay, luciferase readout, single round of replication in 293 cells
Type: cell-based
Conditions: 1.7 fold is the threshold for d4T resistance
Description: In preferred embodiments, the phenotypic analysis of d4T resistance or susceptibility is performed using PHENOSENSE™ (ViroLogic Inc., South San Francisco, Calif.). See Petropoulos et al., 2000, Antimicrob. Agents Chemother. 44:920-928; U.S. Pat. Nos. 5,837,464 and 6,242,187. PHENOSENSE™ is a phenotypic assay that achieves the benefits of phenotypic testing and overcomes the drawbacks of previous assays. Because the assay has been automated, PHENOSENSE™ provides high throughput methods under controlled conditions for determining replication capacity of a large number of individual viral isolates.
The assay can be performed by first co-transfecting host cells with RTV DNA and a plasmid that expresses the envelope proteins of another retrovirus, for example, amphotropic murine leukemia virus (MLV). Following transfection, viral particles can be harvested from the cell culture and used to infect fresh target cells in the presence of varying amounts of anti-viral drug(s). The completion of a single round of viral replication in the fresh target cells can be detected by the means for detecting replication contained in the vector. […] The susceptibility of an HIV, or population of HIV, can be determined by measuring the concentration of antiviral drug at which the luciferase activity detected is half-maximal. […]

SMILES: Cc1cn([C@H]2C=C[C@@H](CO)O2)c(=O)[nH]c1=O [d4T, stavudine]
- IC50 fold higher than wild-type (most of the viruses comprising only the K65R mutation in RT (202 viruses)): less than 1.7 fold
- IC50 fold higher than wild-type (some of the viruses comprising only the K65R mutation in RT (202 viruses)): greater than 1.7 fold
